Test results from PMC11931052, “Efficacy of dispirotripiperazine PDSTP in a golden Syrian hamster model of SARS-CoV-2 infection” (Frontiers in Microbiology, 2025).

Tested on: SARS-CoV-2 BA.4/5 variant
Type: cell-based
Conditions: Calu-3 cells; PDSTP 20 and 4 μM; plaque assay

Cc1nc(N2CC[N+]3(CC2)CC[N+]2(CCNCC2)CC3)c([N+](=O)[O-])c(N2CC[N+]3(CC2)CC[N+]2(CCNCC2)CC3)n1.Cl.Cl.O.O.O.O.O.O.O.O.O.[Cl-].[Cl-].[Cl-].[Cl-] [PDSTP, 3,3′-(2-methyl-5-nitropyrimidine-4,6-diyl)bis-3,12-diaza-6,9-diazonia-dispiro[5.2.5.2]hexadecane tetrachloride dihydrochloride nonahydrate]
Effect on viral titers, BA.4/5 variant: strongly reduce viral titers
